Entries after “also recorded” stand apart in the source; their conditions may differ.
Experiments:
[1] = pre-treatment; literature reports; cited from earlier work
Male Wistar rats [2] = test: Operant alcohol self-administration; format: in vivo; settings: average of two consecutive sessions, vs saline
Method: Animals: Male Wistar rats (Charles River, Montreal; weighing about 150-200 g. at the start of the experiments) were individually housed. Food and water were freely available in the home cages for 23 h/day. Food was not available during the 30 to 60 min daily session (see below). The temperature was maintained at 21±1° C. and the lights were on from 7 a.m. to 7 p.m. Rats were initially trained to consume alcohol in a limited access procedure (Linseman, 1987). The rats were given access to an alcohol solution and water in modified Richter tubes for 30 min/day in drinking cages. Alcohol solutions were provided in escalating concentrations: 3% w/v for the first 5 days 6% for the next 8 days and 12% for the last 10-12 days. Rats that consumed less than 0.4 g/kg per session during the last 10-12 days were excluded. All procedures were done in accordance with the guidelines of the Canadian Council on Animals Care and the ‘principle of laboratories animal care’ (NIH publication No. 85-23, revised 1985), and were approved by the local Animal Care Committee. […]
Analysis of variance with or without repeated measures were employed to analyse the data. […] In the first experiment, the average amounts of alcohol self-administered over a period of two days were used to quantify the effects of lofexidine treatment on alcohol self-administration. […]

[3] = Footshock stress-induced reinstatement of cocaine seeking; format: in vivo; settings: 0.150 mg/kg or 0.2 mg/kg
[4] = in vivo; cited from earlier work
Male Wistar rats [5] = test: Footshock stress-induced reinstatement of alcohol seeking; format: in vivo; settings: for reinstatement of alcohol seeking (responses on the active lever after footshock): vs saline, p<0.05
Method: Animals: Male Wistar rats (Charles River, Montreal; weighing about 150-200 g. at the start of the experiments) were individually housed. Food and water were freely available in the home cages for 23 h/day. Food was not available during the 30 to 60 min daily session (see below). The temperature was maintained at 21±1° C. and the lights were on from 7 a.m. to 7 p.m. Rats were initially trained to consume alcohol in a limited access procedure ([…], 1987). The rats were given access to an alcohol solution and water in modified Richter tubes for 30 min/day in drinking cages. Alcohol solutions were provided in escalating concentrations: 3% w/v for the first 5 days 6% for the next 8 days and 12% for the last 10-12 days. Rats that consumed less than 0.4 g/kg per session during the last 10-12 days were excluded. All procedures were done in accordance with the guidelines of the Canadian Council on Animals Care and the 'principle of laboratories animal care' (NIH publication No. 85-23, revised 1985), and were approved by the local Animal Care Committee. Apparatus: The alcohol self-administration system was built locally. Each operant chamber was equipped with two levers, symmetrically centered on the side panel. Responding on one lever (the active lever) activated the infusion pump (Razel Sci. Stamford, Conn., USA). […] During the infusion, a stimulus light above the active lever was turned on for 6 s. […] The grid floor of the operant cambers was connected to electric shock generators (Med Associates, Georgia, Vt., USA). Training and extinction of alcohol self-administration: Operant self-administration of alcohol was initiated on a fixed ration-1 schedule of reinforcement (FR-1, each lever press is reinforced) for 60 min per day for 5-7 days per week. Responding on the FR-1 schedule was maintained for 10-14 sessions. The requirement for alcohol delivery was then increased to FR-2 for five sessions. Subsequently, the schedule requirement was increased to an FR-3 schedule for 8-12 days until the rats obtained three days of stable drug taking (variability of less than 20% of the mean). During extinction sessions, presses on the previously active lever had no programmable consequences. […] Test for Reinstatement: Tests were conducted under extinction conditions. Intermittent footshock (0.8 mA; 0.5 s ON; a mean OFF period of 40 s; a range of 10-70 s) was administered for a period of 10 min just prior to the test sessions. Footshock was delivered through a scrambler to the stainless steel grid floor of the operant chambers. […] When the animals achieved extinction criterion, the effect of pre-treatment with lofexidine on footshock stress-induced reinstatement of alcohol seeking was determined as described above. […]

[6] = system: imidazoline-type 1 receptors; settings: cited from earlier work
NE release = settings: doses employed in the present study; cited from earlier work
[7] = humans; cited from earlier work
Male Wistar rats [8] = test: Extinction of alcohol self-administration behaviour; format: in vivo; settings: for responding on the active lever, second day of extinction: among the three groups
Method: Animals: Male Wistar rats (Charles River, Montreal; weighing about 150-200 g. at the start of the experiments) were individually housed. Food and water were freely available in the home cages for 23 h/day. Food was not available during the 30 to 60 min daily session (see below). The temperature was maintained at 21±1° C. and the lights were on from 7 a.m. to 7 p.m. Rats were initially trained to consume alcohol in a limited access procedure (Linseman, 1987). The rats were given access to an alcohol solution and water in modified Richter tubes for 30 min/day in drinking cages. Alcohol solutions were provided in escalating concentrations: 3% w/v for the first 5 days 6% for the next 8 days and 12% for the last 10-12 days. Rats that consumed less than 0.4 g/kg per session during the last 10-12 days were excluded. All procedures were done in accordance with the guidelines of the Canadian Council on Animals Care and the ‘principle of laboratories animal care’ (NIH publication No. 85-23, revised 1985), and were approved by the local Animal Care Committee.
Apparatus: The alcohol self-administration system was built locally. Each operant chamber was equipped with two levers, symmetrically centered on the side panel. Responding on one lever (the active lever) activated the infusion pump (Razel Sci. Stamford, Conn., USA). […] During the infusion, a stimulus light above the active lever was turned on for 6 s. […] The grid floor of the operant cambers was connected to electric shock generators (Med Associates, Georgia, Vt., USA).
Training and extinction of alcohol self-administration: Operant self-administration of alcohol was initiated on a fixed ration-1 schedule of reinforcement (FR-1, each lever press is reinforced) for 60 min per day for 5-7 days per week. Responding on the FR-1 schedule was maintained for 10-14 sessions. The requirement for alcohol delivery was then increased to FR-2 for five sessions. Subsequently, the schedule requirement was increased to an FR-3 schedule for 8-12 days until the rats obtained three days of stable drug taking (variability of less than 20% of the mean). […]

heroin-addicted rats = settings: Euro. J. Neurosci. 12, 292-302, 2000; cited from earlier work

Question: With `Cc1csc(Cl)c1NC1=NCCN1` [tiamedine] as the molecule, how does the alcohol consumption [1] read?
Answer: The alcohol consumption was “reduction in alcohol consumption”.

Question: Which “alcohol self-administration (amount of alcohol self-administered during 1-hour session)” value (Male Wistar rats [2]; 0.05 mg/kg IP 1 h before session) does the source give for `CC(Oc1c(Cl)cccc1Cl)C1=NCCN1` (stereo not drawn) [lofexidine, Lofexidine] here?
Answer: The value was “no significant differences; also recorded: did not reach statistical significance”.

Question: And the “alcohol self-administration (amount of alcohol self-administered during 1-hour session)” value (Male Wistar rats [2]; 0.1 mg/kg IP 1 h before session, p<0.05)?
Answer: Its value is “significantly lower; also recorded: significantly suppresses”.

Question: And the “footshock stress-induced reinstatement of cocaine seeking” value [3]?
Answer: The value was “attenuation; also recorded: suppressed”.

Question: And the hypotensive effect [4]?
Answer: The hypotensive effect was “minimal hypotensive effect”.

Question: What about the “reinstatement of alcohol seeking (responses on the active lever after footshock)” value (Male Wistar rats [5]; 0.05 mg/kg IP 1 h before 10 min intermittent footshock) of the same molecule?
Answer: The value was “significantly suppressed”.

Question: What about the “reinstatement of alcohol seeking (responses on the active lever after footshock)” value (Male Wistar rats [5]; 0.1 mg/kg IP 1 h before 10 min intermittent footshock) of the same molecule?
Answer: The value was “significantly suppressed”.

Question: And the “reinstatement of alcohol seeking (responses on the active lever after footshock)” value (Male Wistar rats [5]; 0.2 mg/kg IP 1 h before 10 min intermittent footshock)?
Answer: Its value is “significantly suppressed”.

Question: What about the “reinstatement of alcohol seeking” value (Male Wistar rats [5]; doses ranging from 0.05 to 0.2 mg/kg, intermittent footshock stress) of the same molecule?
Answer: Its value is “completely suppressed”.

Question: What about the “affinity for imidazoline-type 1 (I2) receptors” value [6] of the same molecule?
Answer: Its value is “high affinity”.

Question: What about the “stress induced NE release in the pre-frontal cortex and amygdala” value (NE release) of the same molecule?
Answer: Its value is “block”.

Question: What about the “adverse side effects compared with clonidine, in particular hypotensive effects” value [7] of the same molecule?
Answer: The value was “fewer adverse side effects”.

Question: What about the “responding on the active lever, second day of extinction” value (Male Wistar rats [8]; 0.05 mg/kg IP daily) of the same molecule?
Answer: Its value is “no significant differences”.

Question: And the “responding on the active lever, first day of extinction” value (Male Wistar rats [8]; 0.1 mg/kg IP daily 1 h before session, vs saline and lower dose group)?
Answer: Its value is “significantly lower; also recorded: significant decrease”.

Question: And the “responding on the active lever, second day of extinction” value (Male Wistar rats [8]; 0.1 mg/kg IP daily)?
Answer: The value was “no significant differences”.

Question: Which results are given for `Clc1cccc(Cl)c1N=C1NCCN1` [clonidine]?
Answer: foot-shock-induced reinstatement of heroin-seeking (heroin-addicted rats): effective; alcohol consumption [1]: reduction in alcohol consumption

Question: Which alcohol consumption [1] does the source give for `N=C(N)NC(=O)Cc1c(Cl)cccc1Cl` [guanfacine] here?
Answer: Its alcohol consumption is “reduction in alcohol consumption”.
